The target in assay [1] is T1, long form of human GPR120 (Homo sapiens, UniProt Q5NUL3).
T1 construct: host or cells: PathHunter CHO-K1 GPR120 β-Arrestin Cell Line
Put plainly: Human GPR120 DiscoveRx PathHunter Beta-Arrestin assay, Procedure β-arrestin A. It is filed as cell-based. Particulars: PathHunter CHO-K1 GPR120 β-Arrestin cell line, 3000 cells per well, read-out: hGPR120 β-arrestin A EC50. The method in brief: (§1)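 PathHunter CHO-K1 β-arrestin cells expressed long-form GPR120 (Procedure A, 3000 cells/well) or short-form GPR120 (Procedure B, 5000 cells/well). Compounds were serially diluted from 25 µM and incubated 90 min at 37 °C in HBSS/20 mM HEPES/0.1% BSA, pH 7.4. Luminescence was read after 60 min detection at RT; EC50 comes from % activity versus positive control, Hill slope fixed at 1.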

Assay [2] has as its target T2, short form of the GPR120 receptor (GPR120S) (Homo sapiens, UniProt Q5NUL3).
T2 construct: host or cells: PathHunter CHO-K1 GPR120S β-Arrestin Cell Line
Put plainly: Human GPR120 DiscoveRx PathHunter Beta-Arrestin assay, Procedure β-arrestin B. It is filed as cell-based. To be noted: PathHunter CHO-K1 GPR120S β-Arrestin cell line, 5000 cells/well, read-out: hGPR120 β-arrestin B EC50. The method in brief:
as §1

pEC50: −log10 of the molar value.

T2 sequence (Q5NUL3 whole entry): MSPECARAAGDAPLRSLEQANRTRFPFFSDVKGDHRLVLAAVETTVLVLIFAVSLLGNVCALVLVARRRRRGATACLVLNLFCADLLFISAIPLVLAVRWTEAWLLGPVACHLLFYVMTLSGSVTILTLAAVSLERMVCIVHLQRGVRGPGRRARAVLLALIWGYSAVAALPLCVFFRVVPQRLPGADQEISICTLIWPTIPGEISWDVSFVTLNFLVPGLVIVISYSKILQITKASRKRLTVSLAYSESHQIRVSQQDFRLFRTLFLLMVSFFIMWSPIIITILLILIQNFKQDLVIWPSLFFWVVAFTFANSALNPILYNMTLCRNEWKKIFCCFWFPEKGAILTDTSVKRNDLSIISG
T2 sequence (P32121 whole entry partner): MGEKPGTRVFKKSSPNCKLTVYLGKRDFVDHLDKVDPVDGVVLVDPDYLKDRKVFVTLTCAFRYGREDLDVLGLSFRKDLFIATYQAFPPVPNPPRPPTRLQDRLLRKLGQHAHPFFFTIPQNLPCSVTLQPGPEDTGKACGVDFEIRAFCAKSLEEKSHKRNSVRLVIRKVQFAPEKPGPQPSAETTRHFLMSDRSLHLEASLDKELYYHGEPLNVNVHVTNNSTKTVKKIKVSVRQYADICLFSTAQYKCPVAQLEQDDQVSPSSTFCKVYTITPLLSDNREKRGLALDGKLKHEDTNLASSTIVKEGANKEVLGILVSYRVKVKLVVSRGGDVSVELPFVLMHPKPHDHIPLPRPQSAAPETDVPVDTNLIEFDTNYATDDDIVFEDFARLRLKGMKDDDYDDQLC
T1 sequence (Q5NUL3 1-377 isoform Q5NUL3-1): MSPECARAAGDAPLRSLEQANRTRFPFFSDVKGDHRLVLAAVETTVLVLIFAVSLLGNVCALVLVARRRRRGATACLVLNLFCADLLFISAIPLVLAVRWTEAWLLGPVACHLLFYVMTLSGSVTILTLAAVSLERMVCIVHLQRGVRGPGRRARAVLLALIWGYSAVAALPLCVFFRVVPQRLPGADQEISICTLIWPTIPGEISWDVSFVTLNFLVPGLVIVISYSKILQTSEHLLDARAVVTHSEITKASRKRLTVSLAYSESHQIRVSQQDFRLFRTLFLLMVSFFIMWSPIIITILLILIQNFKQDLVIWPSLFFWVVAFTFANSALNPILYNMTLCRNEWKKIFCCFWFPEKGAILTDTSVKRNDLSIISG
T1 sequence (P32121 whole entry partner): as the sequence (P32121 whole entry partner) above

Consider “3-(4-[[3-(4-chlorophenyl)-5-(trifluoromethyl)-1,2-thiazol-4-yl]methoxy]-3-methylphenyl)propanoic acid [Cpd 235]”, for which the negative logarithm of the EC50 (pEC50) was 6.37 in assay [1] and 6.49 in assay [2].

Regarding “3-(4-[[3-(4-ethylphenyl)-5-(trifluoromethyl)-1,2-thiazol-4-yl]methoxy]-1-benzothiophen-7-yl)propanoic acid [Cpd 92]”, the values for the negative logarithm of the EC50 (pEC50) in assay [1] and in assay [2] were 7.55 and 7.51, respectively.

Turning to “3-(4-[[3-(4-ethylphenyl)-5-(trifluoromethyl)-1,2-thiazol-4-yl]methoxy]-3,5-difluorophenyl)propanoic acid [Cpd 70]”, the pEC50 was 7.01 in assay [1] and 7.17 in assay [2].

Take `CCc1ccc(-c2cc(F)sc2COc2ccc(CCC(=O)O)c(C)c2C)cc1` [Cpd 1, 3-(4-[[3-(4-ethylphenyl)-5-fluorothiophen-2-yl]methoxy]-2,3-dimethylphenyl)propanoic acid]: the pEC50 was 6.66 in assay [1] and 6.69 in assay [2].

`Cc1c(CCC(=O)O)ccc(OCc2sc(F)cc2-c2ccc(Cl)cc2)c1C` [Cpd 3, 3-(4-((3-(4-chlorophenyl)-5-fluorothiophen-2-yl)methoxy)-2,3-dimethylphenyl)propanoic acid]: the pEC50 in assay [2] was 7.08.

As for `OCCCc1cc(F)c(OCc2c(-c3ccc4c(c3)OCO4)csc2C(F)(F)F)c(F)c1` [Cpd 37, 3-(4-((4-(benzo[d][1,3]dioxol-5-yl)-2-(trifluoromethyl)thiophen-3-yl)methoxy)-3,5-difluorophenyl)propan-1-ol], the results for the pEC50 in assay [1] and in assay [2] were 7.24 and 7.66, respectively.

As for `Cc1ccc(-c2nsc(C(F)(F)F)c2COc2c(F)cc(CCC(=O)O)cc2F)c(F)c1` [Cpd 65, 3-(3,5-difluoro-4-[[3-(2-fluoro-4-methylphenyl)-5-(trifluoromethyl)-1,2-thiazol-4-yl]methoxy]phenyl)propanoic acid], the figures for the pEC50 in assay [1] and in assay [2] were 6.77 and 6.90, respectively.

In the case of `O=C(O)CCc1cc(F)c(OCc2c(-c3ccc(Cl)c(F)c3)nsc2C(F)(F)F)c(F)c1` [Cpd 67, 3-(4-((3-(4-chloro-3-fluorophenyl)-5-(trifluoromethyl)isothiazol-4-yl)methoxy)-3,5-difluorophenyl)propanoic acid], the negative-log EC50 (pEC50) in assay [1] was 7.07; in assay [2], 7.37.

For `O=C(O)CCc1cc(F)c(OCc2c(C3CCCC3)nsc2C(F)(F)F)c(F)c1` [Cpd 71, 3-(4-[[3-cyclopentyl-5-(trifluoromethyl)-1,2-thiazol-4-yl]methoxy]-3,5-difluorophenyl)propanoic acid], the pEC50 is 6.56 in assay [1] and 6.86 in assay [2].

With `CCc1ccc(-c2nsc(C(F)(F)F)c2COc2ccc(CCC(=O)O)c(F)c2F)cc1` [Cpd 73, 3-(4-((3-(4-ethylphenyl)-5-(trifluoromethyl)isothiazol-4-yl)methoxy)-2,3-difluorophenyl)propanoic acid], in assay [1], the negative-log EC50 (pEC50) was 6.87.

In the case of `O=C(O)CCc1cc(F)c(OCc2c(-c3ccc(Cl)cc3F)nsc2C(F)(F)F)c(F)c1` [Cpd 74, 3-(4-((3-(4-chloro-2-fluorophenyl)-5-(trifluoromethyl)isothiazol-4-yl)methoxy)-3,5-difluorophenyl)propanoic acid], the pEC50 was 6.84 in assay [1] and 7.20 in assay [2].

`Cc1ccc(-c2nsc(C(F)(F)F)c2COc2c(F)cc(CC(C)C(=O)O)cc2F)c(F)c1` (centres unmarked) [Cpd 76, 3-(3,5-difluoro-4-[[3-(2-fluoro-4-methylphenyl)-5-(trifluoromethyl)-1,2-thiazol-4-yl]methoxy]phenyl)-2-methylpropanoic acid]: the negative-log EC50 (pEC50) in assay [2] is 6.75.

Take `O=C(O)CCc1cc(F)c(OCc2c(-c3ccc(Cl)cc3)nsc2C(F)(F)F)c(F)c1` [Cpd 79, 3-(4-[[3-(4-chlorophenyl)-5-(trifluoromethyl)-1,2-thiazol-4-yl]methoxy]-3,5-difluorophenyl)propanoic acid]: the negative logarithm of the EC50 (pEC50) in assay [1] is 7.15; in assay [2] it was 7.21.

Turning to `CCc1ccc(-c2snc(Cl)c2COc2ccc(CCC(=O)O)c(C)c2C)cc1` [Cpd 85, 3-(4-[[3-chloro-5-(4-ethylphenyl)-1,2-thiazol-4-yl]methoxy]-2,3-dimethylphenyl)propanoic acid], in assay [1], the negative logarithm of the EC50 (pEC50) is 6.78.

In the case of `OCCCc1cc(F)c(OCc2c(-c3ccc4c(c3)OCO4)nsc2C(F)(F)F)c(F)c1` [Cpd 93, 3-(4-[[3-(2H-1,3-benzodioxol-5-yl)-5-(trifluoromethyl)-1,2-thiazol-4-yl]methoxy]-3,5-difluorophenyl)propan-1-ol], the values for the pEC50 in assay [1] and in assay [2] were 7.42 and 7.57, respectively.

Regarding `OCCCc1cc(F)c(OCc2c(-c3ccc(Cl)cc3)nsc2C(F)(F)F)c(F)c1` [Cpd 100, 3-(4-[[3-(4-chlorophenyl)-5-(trifluoromethyl)-1,2-thiazol-4-yl]methoxy]-3,5-difluorophenyl)propan-1-ol], the negative logarithm of the EC50 (pEC50) in assay [1] is 7.01.

Consider `OCCCc1ccc(OCc2c(Cl)nsc2-c2ccc(Cl)cc2)c(F)c1F` [Cpd 102, 3-(4-((3-chloro-5-(4-chlorophenyl)isothiazol-4-yl)methoxy)-2,3-difluorophenyl)propan-1-ol], for which the pEC50 in assay [1] was 7.40.

Consider `CC(Cc1cc(F)c(OCc2c(-c3ccc(Cl)cc3)nsc2C(F)(F)F)c(F)c1)C(=O)O` (centres unmarked) [Cpd 108, 3-(4-[[3-(4-chlorophenyl)-5-(trifluoromethyl)-1,2-thiazol-4-yl]methoxy]-3,5-difluorophenyl)-2-methylpropanoic acid], for which the values for the pEC50 in assay [1] and in assay [2] were 6.58 and 6.79, respectively.

For `O=C(O)CCc1cc(F)c(OCc2c(-c3ccc(Cl)cc3)nsc2C(F)(F)F)c(F)c1F` [Cpd 116, 3-(4-((3-(4-chlorophenyl)-5-(trifluoromethyl)isothiazol-4-yl)methoxy)-2,3,5-trifluorophenyl)propanoic acid], the values for the pEC50 in assay [1] and in assay [2] were 6.95 and 7.06, respectively.

`Cc1c(CCC(=O)O)ccc(OCc2c(-c3ccccc3)nsc2C(F)(F)F)c1C` [Cpd 134, 3-(2,3-dimethyl-4-[[3-phenyl-5-(trifluoromethyl)-1,2-thiazol-4-yl]methoxy]phenyl)propanoic acid]: the negative logarithm of the EC50 (pEC50) is 6.60 in assay [1] and 6.39 in assay [2].

For the compound `O=C(O)CCc1cc(F)c(OCc2c(-c3ccc(Cl)c(F)c3)nsc2C(F)(F)F)c(F)c1F` [Cpd 138, 3-(4-((3-(4-chloro-3-fluorophenyl)-5-(trifluoromethyl)isothiazol-4-yl)methoxy)-2,3,5-trifluorophenyl)propanoic acid], the negative-log EC50 (pEC50) is 6.94 in assay [1] and 6.79 in assay [2].

On to `Cc1c(CCC(=O)O)ccc(OCc2c(-c3ccc(Cl)cc3)nsc2C(F)(F)F)c1C` [Cpd 142, 3-(4-((3-(4-chlorophenyl)-5-(trifluoromethyl)isothiazol-4-yl)methoxy)-2,3-dimethylphenyl)propanoic acid], for which the negative-log EC50 (pEC50) in assay [1] was 6.85; in assay [2], 7.00.

Regarding `O=C(O)CCc1c(F)c(F)c(OCc2c(-c3ccc(Cl)cc3)nsc2C(F)(F)F)c(F)c1F` [Cpd 152, 3-(4-((3-(4-chlorophenyl)-5-(trifluoromethyl)isothiazol-4-yl)methoxy)-2,3,5,6-tetrafluorophenyl)propanoic acid], the pEC50 in assay [1] and in assay [2] was 6.74 throughout.

As to `O=C(O)CCc1cc(F)c(OCc2c(-c3ncc(Cl)cc3F)nsc2C(F)(F)F)c(F)c1` [Cpd 153, 3-(4-((3-(5-chloro-3-fluoropyridin-2-yl)-5-(trifluoromethyl)isothiazol-4-yl)methoxy)-3,5-difluorophenyl)propanoic acid], the negative-log EC50 (pEC50) in assay [1] was 6.72; in assay [2] it was 6.98.

Turning to `CCc1cc(CCC(=O)O)ccc1OCc1c(-c2ccc(Cl)cc2)nsc1C(F)(F)F` [Cpd 162, 3-(4-[[3-(4-chlorophenyl)-5-(trifluoromethyl)-1,2-thiazol-4-yl]methoxy]-3-ethylphenyl)propanoic acid], the pEC50 was 6.81 in assay [1] and 7.27 in assay [2].

`Cc1c(CCC(=O)O)ccc(OCc2c(-c3ncc(Cl)cc3F)nsc2C(F)(F)F)c1C` [Cpd 180, 3-(4-((3-(5-chloro-3-fluoropyridin-2-yl)-5-(trifluoromethyl)isothiazol-4-yl)methoxy)-2,3-dimethylphenyl)propanoic acid]: the pEC50 in assay [1] was 6.25; in assay [2], 6.53.

Turning to `Cc1ccccc1-c1snc(Cl)c1COc1c(F)cc(CCC(=O)O)cc1F` [Cpd 193, 3-(4-[[3-chloro-5-(2-methylphenyl)-1,2-thiazol-4-yl]methoxy]-3,5-difluorophenyl)propanoic acid], the negative logarithm of the EC50 (pEC50) in assay [1] is 6.49; in assay [2], 6.00.

As to `OCC#Cc1cc(F)c(OCc2c(-c3ccc(Cl)cc3)nsc2C(F)(F)F)c(F)c1` [Cpd 213, 3-(4-[[3-(4-chlorophenyl)-5-(trifluoromethyl)-1,2-thiazol-4-yl]methoxy]-3,5-difluorophenyl)prop-2-yn-1-ol], the results for the pEC50 in assay [1] and in assay [2] were 7.23 and 7.06, respectively.

As usually defined, the pEC50 is −log10 of the EC50, conventionally taken in molar units.

For the origin of these results see patent US9067898B1, “Isothiazole derivatives as GPR120 agonists for the treatment of type II diabetes” (Janssen Pharmaceutica NV, priority 2014, dated 2015).
